Reference: PMC7308088, “A moth odorant receptor highly expressed in the ovipositor is involved in detecting host-plant volatiles” (eLife, 2020)

Target: T1, HassOR31/HassORco (Helicoverpa assulta, UniProt A0A7D3UMA0)
T1 construct: with Odorant receptor coreceptor
T1 sequence (A0A7D3UMA0 1-395): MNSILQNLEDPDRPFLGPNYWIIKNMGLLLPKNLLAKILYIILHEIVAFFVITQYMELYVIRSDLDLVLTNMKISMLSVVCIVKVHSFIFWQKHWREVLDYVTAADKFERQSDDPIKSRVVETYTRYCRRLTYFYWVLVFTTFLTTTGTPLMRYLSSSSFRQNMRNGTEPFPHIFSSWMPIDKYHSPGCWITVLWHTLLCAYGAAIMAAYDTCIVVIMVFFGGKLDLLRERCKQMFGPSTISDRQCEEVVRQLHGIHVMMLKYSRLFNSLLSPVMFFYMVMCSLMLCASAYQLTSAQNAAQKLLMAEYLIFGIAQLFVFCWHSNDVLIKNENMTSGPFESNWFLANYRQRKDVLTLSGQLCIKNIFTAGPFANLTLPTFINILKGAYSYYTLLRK
T1 sequence (A7UGE1 1-473 partner): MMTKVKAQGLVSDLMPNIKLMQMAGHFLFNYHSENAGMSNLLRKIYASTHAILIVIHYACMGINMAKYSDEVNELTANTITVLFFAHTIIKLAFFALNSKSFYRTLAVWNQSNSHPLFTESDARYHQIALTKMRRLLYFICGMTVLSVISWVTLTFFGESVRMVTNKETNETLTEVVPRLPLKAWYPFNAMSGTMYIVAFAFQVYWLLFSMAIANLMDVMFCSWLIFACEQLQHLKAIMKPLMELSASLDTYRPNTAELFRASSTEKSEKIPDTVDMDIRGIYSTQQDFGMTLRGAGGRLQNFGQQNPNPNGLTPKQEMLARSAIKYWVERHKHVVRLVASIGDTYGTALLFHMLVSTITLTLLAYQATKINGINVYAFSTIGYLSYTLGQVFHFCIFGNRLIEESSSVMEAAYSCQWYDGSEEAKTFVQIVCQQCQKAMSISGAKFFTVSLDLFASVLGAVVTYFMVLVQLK
Assay: two-electrode voltage clamp, Xenopus oocytes, inward current
Assay type: cell-based

EC50: 16.1 µM
SMILES: CC/C=C\CCOC(=O)CCC [Z-3-hexenyl butyrate]
